What all share (test): antimicrobial activity, serial dilution method on agar plate
What all share (format): cell-based

For one test, the system named is Klebsiella pneumoniae. On the procedure: (§1) The antimicrobial activity of the following test compounds on various test organisms listed below was determined by the serial dilution method on agar plate (Heart Infusion agar produced by Difco Co.) (see CHEMOTHERAPY 22, pp. 1126-1128 (1974)), and the minimum inhibitory concentrations (mcg/ml) obtained are shown in Table 1 below.
(§2) A sample of each test organism was prepared so that the population of the organism was 1×10^8 cells/ml (O.D. 660 mμ=0.07 to 0.16) and 1×10^6 cells/ml (which was obtained by diluting the above 1×10^8 cells/ml preparation).

The test system of test [1] is Staphylococcus aureus FDA 209 P. As for the experimental part: as §1, §2
For a further test, the system named is Shigella Sonnei EW 33. Particulars: read-out: Minimum Inhibitory Concentration. As for the experimental part: as §1, §2
Test [2] deals with Serattia marcescens IFO 12648. As for the experimental part:
as §1, §2

Test [3] deals with Streptococcus pyogenes IID S-23. On the procedure:
as §1, §2

The subject of test [4] is Pseudomonas aeruginosa ATCC 10145. On the procedure: as §1, §2
Test [5] deals with Salmonella typhi 0-901 (NCTC 8393). As to conditions: Salmonella enterica. On the procedure:
as §1, §2

For test [6], the system named is Pseudomonas aeruginosa NCTC 10490. As for the experimental part: as §1, §2
Test [7] deals with Escherichia Coli NIHJ JC-2 (IFO 12734). Particulars: for MIC: Escherichia coli, read-out: Minimum Inhibitory Concentration. As for the experimental part:
as §1, §2

Test [8] deals with Pseudomonas aeruginosa E-2. As for the experimental part: as §1, §2
A further test concerns Proteus rettgeri NIH 96. As to conditions: Providencia rettgeri. On the procedure: as §1, §2
Where [9] appears, read: read-out: Minimum Inhibitory Concentration, inoculum 1 × 10^8 cells/ml.
Where [10] appears, read: FDA209, read-out: Minimum Inhibitory Concentration, inoculum 1 × 10^8 cells/ml.
Where [11] appears, read: IIDS23, read-out: Minimum Inhibitory Concentration, inoculum 1 × 10^8 cells/ml.
[12] abbreviates: ATCC10145, read-out: Minimum Inhibitory Concentration, inoculum 1 × 10^8 cells/ml.
Where [13] appears, read: inoculum 1 × 10^8 cells/ml, read-out: Minimum Inhibitory Concentration.
Setting [14] is: NCTC10490, read-out: Minimum Inhibitory Concentration, inoculum 1 × 10^8 cells/ml.
[15] abbreviates: E2, read-out: Minimum Inhibitory Concentration, inoculum 1 × 10^8 cells/ml.
Where [16] appears, read: NIH96, read-out: Minimum Inhibitory Concentration, inoculum 1 × 10^8 cells/ml.
Setting [17] is: read-out: Minimum Inhibitory Concentration, inoculum 1 × 10^6 cells/ml.
Setting [18] is: inoculum 1 × 10^6 cells/ml, read-out: Minimum Inhibitory Concentration.
The mark [19] stands for this setting: FDA209, inoculum 1 × 10^6 cells/ml, read-out: Minimum Inhibitory Concentration.
The mark [20] stands for this setting: FDA209, inoculum 1 × 10^8 cells/ml, read-out: Minimum Inhibitory Concentration.
Setting [21] is: IIDS23, inoculum 1 × 10^6 cells/ml, read-out: Minimum Inhibitory Concentration.
Setting [22] is: IIDS23, inoculum 1 × 10^8 cells/ml, read-out: Minimum Inhibitory Concentration.
Setting [23] is: ATCC10145, inoculum 1 × 10^6 cells/ml, read-out: Minimum Inhibitory Concentration.
[24] abbreviates: ATCC10145, inoculum 1 × 10^8 cells/ml, read-out: Minimum Inhibitory Concentration.
Where [25] appears, read: NCTC10490, inoculum 1 × 10^6 cells/ml, read-out: Minimum Inhibitory Concentration.
The mark [26] stands for this setting: NCTC10490, inoculum 1 × 10^8 cells/ml, read-out: Minimum Inhibitory Concentration.
[27] abbreviates: E2, inoculum 1 × 10^6 cells/ml, read-out: Minimum Inhibitory Concentration.
[28] abbreviates: E2, inoculum 1 × 10^8 cells/ml, read-out: Minimum Inhibitory Concentration.
[29] abbreviates: NIH96, inoculum 1 × 10^6 cells/ml, read-out: Minimum Inhibitory Concentration.
The mark [30] stands for this setting: NIH96, inoculum 1 × 10^8 cells/ml, read-out: Minimum Inhibitory Concentration.

The structures appear in SMILES notation. Converted amounts (≈) assume the structure as drawn. Structures can show the parent of a compound that is named as a salt. Where two headings read alike, the source gives them in different places.

Take `CC1CCc2c(N3CCNCC3)c(F)cc3c(=O)c(C(=O)O)cn1c23` (centres unmarked) [Compound X, 8-(1-Piperazinyl)-9-fluoro-5-methyl-6,7-dihydro-1-oxo-1H,5H--benzo[ij]quinolizine-2-carboxylic acid hydrobromide]: the MIC is 0.4 µg/mL in the test on Klebsiella pneumoniae (setting [9]); 0.8 µg/mL in test [1] (setting [10]); 0.2 µg/mL with Shigella Sonnei EW 33 (inoculum 1 × 10^8 cells/ml); 0.8 µg/mL in test [2] (setting [9]); 3.1 µg/mL in [3] (setting [11]); 1.6 µg/mL in test [4] (setting [12]). Besides, the MIC in [5] (setting [13]) worked out at 0.1 µg/mL; in test [6] (setting [14]) it was 1.6 µg/mL; in test [7], 0.4 µg/mL; in test [8] (setting [15]) it was 1.6 µg/mL; with Proteus rettgeri NIH 96 (setting [16]), 0.1 µg/mL.

On to `CC1Cc2c(N3CCNCC3)c(Cl)cc3c(=O)c(C(=O)O)cn1c23` (centres unmarked) [Compound Y, 8-Chloro-9-(1-piperazinyl)-2-methyl-6-oxo-1,2-dihydro-6H--pyrrolo[3,2,1-ij]-quinoline-5-carboxylic acid], for which the MIC in the test on Klebsiella pneumoniae (setting [17]) is 0.2 µg/mL (≈ 0.575 µM); with Klebsiella pneumoniae (setting [9]), 0.4 µg/mL (≈ 1.15 µM); in test [1] (FDA209, read-out: Minimum Inhibitory Concentration, inoculum 1 × 10^6 cells/ml), 3.1 µg/mL (≈ 8.91 µM); in [1] (setting [10]), 3.1 µg/mL (≈ 8.91 µM); in the test with Shigella Sonnei EW 33 (inoculum 1 × 10^6 cells/ml) it was at most 0.05 µg/mL; in the test with Shigella Sonnei EW 33 (inoculum 1 × 10^8 cells/ml), 0.1 µg/mL (≈ 0.288 µM). In addition, the MIC in [2] (setting [17]) was found to be 0.4 µg/mL (≈ 1.15 µM); in test [2] (setting [9]), 0.8 µg/mL (≈ 2.3 µM); in test [3] (IIDS23, read-out: Minimum Inhibitory Concentration, inoculum 1 × 10^6 cells/ml), 6.3 µg/mL (≈ 18.1 µM); in [3] (setting [11]) it was 12.5 µg/mL (≈ 35.9 µM); in test [4] (ATCC10145, read-out: Minimum Inhibitory Concentration, inoculum 1 × 10^6 cells/ml), 1.6 µg/mL (≈ 4.6 µM); in test [4] (setting [12]) it was 1.6 µg/mL (≈ 4.6 µM). For the same compound, the MIC is at most 0.05 µg/mL in [5] (setting [18]); 0.1 µg/mL (≈ 0.288 µM) in [5] (setting [13]); 1.6 µg/mL (≈ 4.6 µM) in test [6] (NCTC10490, read-out: Minimum Inhibitory Concentration, inoculum 1 × 10^6 cells/ml); 1.6 µg/mL (≈ 4.6 µM) in [6] (setting [14]); 0.2 µg/mL (≈ 0.575 µM) in test [7]; 3.1 µg/mL (≈ 8.91 µM) in test [8] (E2, read-out: Minimum Inhibitory Concentration, inoculum 1 × 10^6 cells/ml). The MIC in test [8] (setting [15]) was 3.1 µg/mL (≈ 8.91 µM); with Proteus rettgeri NIH 96 (NIH96, read-out: Minimum Inhibitory Concentration, inoculum 1 × 10^6 cells/ml) it was 0.1 µg/mL (≈ 0.288 µM); in the test on Proteus rettgeri NIH 96 (setting [16]), 0.2 µg/mL (≈ 0.575 µM). Moreover, the “Minimum Inhibitory Concentration” value in [7] (inoculum 1 × 10^6 cells/ml) was determined as 0.2 µg/mL.

As to `CC1Cc2c(N3CCN(C)CC3)c(Cl)cc3c(=O)c(C(=O)O)cn1c23` (centres unmarked) [Compound Z, 8-Chloro-9-(4-methyl-1-piperazinyl)-2-methyl-6-oxo-1,2-dihydro-6H--pyrrolo[3,2,1-ij]-quinoline-5-carboxylic acid], the MIC in the test with Klebsiella pneumoniae (setting [18]) was found to be 0.2 µg/mL (≈ 0.553 µM); in the test with Klebsiella pneumoniae (setting [13]), 0.2 µg/mL (≈ 0.553 µM); in test [1] (setting [19]) it was 0.4 µg/mL (≈ 1.11 µM); in test [1] (setting [20]), 0.8 µg/mL (≈ 2.21 µM); with Shigella Sonnei EW 33 (inoculum 1 × 10^6 cells/ml), 0.2 µg/mL (≈ 0.553 µM); with Shigella Sonnei EW 33 (inoculum 1 × 10^8 cells/ml), 0.2 µg/mL (≈ 0.553 µM). For the same compound, the MIC in test [2] (setting [18]) was 0.4 µg/mL (≈ 1.11 µM); in test [2] (setting [13]), 0.4 µg/mL (≈ 1.11 µM); in [3] (setting [21]) it was 6.3 µg/mL (≈ 17.4 µM); in test [3] (setting [22]) it was 12.5 µg/mL (≈ 34.5 µM); in [4] (setting [23]), 3.1 µg/mL (≈ 8.57 µM); in test [4] (setting [24]), 3.1 µg/mL (≈ 8.57 µM). In addition, the MIC in test [5] (setting [17]) came out at 0.1 µg/mL (≈ 0.276 µM); in test [5] (setting [9]) it was 0.1 µg/mL (≈ 0.276 µM); in [6] (setting [25]), 3.1 µg/mL (≈ 8.57 µM); in [6] (setting [26]), 3.1 µg/mL (≈ 8.57 µM); in test [7] (inoculum 1 × 10^6 cells/ml) it was 0.2 µg/mL (≈ 0.553 µM); in test [7] (inoculum 1 × 10^8 cells/ml), 0.2 µg/mL (≈ 0.553 µM). In addition, the MIC in test [8] (setting [27]) was 3.1 µg/mL (≈ 8.57 µM); in test [8] (setting [28]) it was 6.3 µg/mL (≈ 17.4 µM); in the test on Proteus rettgeri NIH 96 (setting [29]), 0.2 µg/mL (≈ 0.553 µM); in the test with Proteus rettgeri NIH 96 (setting [30]), 0.4 µg/mL (≈ 1.11 µM).

Regarding `CC1Cc2c(N3CCN(C)CC3)c(F)cc3c(=O)c(C(=O)O)cn1c23` (centres unmarked) [a], the MIC was 0.2 µg/mL (≈ 0.579 µM) in the test on Klebsiella pneumoniae (setting [18]); 0.2 µg/mL (≈ 0.579 µM) in the test with Klebsiella pneumoniae (setting [13]); 0.4 µg/mL (≈ 1.16 µM) in [1] (setting [19]); 0.8 µg/mL (≈ 2.32 µM) in [1] (setting [20]); 0.1 µg/mL (≈ 0.29 µM) with Shigella Sonnei EW 33 (inoculum 1 × 10^6 cells/ml); 0.1 µg/mL (≈ 0.29 µM) in the test on Shigella Sonnei EW 33 (inoculum 1 × 10^8 cells/ml). Also, the MIC is 0.2 µg/mL (≈ 0.579 µM) in [2] (setting [18]); 0.2 µg/mL (≈ 0.579 µM) in test [2] (setting [13]); 3.1 µg/mL (≈ 8.98 µM) in test [3] (setting [21]); 6.3 µg/mL (≈ 18.2 µM) in [3] (setting [22]); 1.6 µg/mL (≈ 4.63 µM) in [4] (setting [23]); 1.6 µg/mL (≈ 4.63 µM) in test [4] (setting [24]). Moreover, the MIC in test [5] (setting [17]) is at most 0.05 µg/mL; in test [5] (setting [9]), at most 0.05 µg/mL; in test [6] (setting [25]), 1.6 µg/mL (≈ 4.63 µM); in test [6] (setting [26]), 1.6 µg/mL (≈ 4.63 µM); in test [7] (inoculum 1 × 10^6 cells/ml), 0.1 µg/mL (≈ 0.29 µM); in test [7] (inoculum 1 × 10^8 cells/ml), 0.1 µg/mL (≈ 0.29 µM). For the same compound, the MIC in test [8] (setting [27]) was found to be 1.6 µg/mL (≈ 4.63 µM); in test [8] (setting [28]), 1.6 µg/mL (≈ 4.63 µM); in the test with Proteus rettgeri NIH 96 (setting [29]) it was 0.1 µg/mL (≈ 0.29 µM); with Proteus rettgeri NIH 96 (setting [30]), 0.2 µg/mL (≈ 0.579 µM).

Source of the values: patent publication US4416884A, “Piperazinylbenzoheterocyclic compounds” (Otsuka Pharmaceutical Co., Ltd., priority 1978, dated 1983).
